Data on five molecules can be found in PMC10289957 (Investigational New Drugs, 2023).

Where two headings read alike, the source gives them in different places. Marks after values point to notes of the source that are not given here.

One series relates to preclinical models. Also noted: method as in PMID 29774094, PMID 33273059. Conditions: cited from earlier work.
The test system of series [1] is patients with advanced solid tumors. Conditions: cited from earlier work.
Series [2] concerns human cancer xenograft models. Conditions: various human cancer xenograft models; cited from earlier work. On the technique in general: Xenograft models place foreign cells or tissue in a host animal.
For series [3] the following is noted: human, in vivo.
Experimental: (§1) Serial plasma samples were collected for PK analysis on days 1 and 4 of cycle 1 before the morning dose; at 1, 2, 4, 6, and between 8−12 h after the morning dose. Additional samples were taken before the morning dose and 1 and 4 h after the morning dose on days 1 and 4 of cycle 2 and days 1 and 4 of cycle 5. PK parameters were determined using standard noncompartmental methods with Phoenix WinNonlin v8.1 (Certara, Princeton, NJ). Area under the plasma concentration−time curve (AUC) was calculated using the linear up/log down trapezoidal rule.
A further series concerns advanced solid tumors. Conditions: MK-8353 300−400 mg twice daily, 3/15 patients; cited from earlier work.
A short description of the next series: clinical. The conditions noted are these: human, in vivo, Observed median time of maximum plasma concentration, range over dose levels.
The test system of the next series is patients. Further details: method as in PMID 30681641. Conditions: cited from earlier work.
The test system of another series is advanced cancers. Further details: method as in PMID 25385055. The conditions noted are these: selumetinib monotherapy, patients with advanced cancers; cited from earlier work.
A short description of series [4]: Plasma pharmacokinetics after oral administration of the combination (noncompartmental). Conditions: for AUC0−12 / AUC0−last / Cmax / tlast / tmax: plasma; for AUC0−12 / AUC0−last / Cmax: geometric mean (% geometric CV); for tlast / tmax: median (range).
Experimental: as §1
Where [5] appears, read: MK-8353 400 mg twice daily (MTD).
Where [6] appears, read: MK-8353 400 mg twice daily, n = 7.
[7] abbreviates: MK-8353 800 mg twice daily, 6 patients.
The mark [8] stands for this setting: cycle 1 Day 1, MK-8353 50 mg + selumetinib 25 mg oral BID.
[9] abbreviates: cycle 1 Day 1, MK-8353 100 mg + selumetinib 50 mg oral BID.
[10] abbreviates: cycle 1 Day 1, MK-8353 150 mg + selumetinib 75 mg oral BID.
Where [11] appears, read: cycle 1 Day 4, MK-8353 50 mg + selumetinib 25 mg oral BID.
The mark [12] stands for this setting: cycle 1 Day 4, MK-8353 100 mg + selumetinib 50 mg oral BID.
Where [13] appears, read: cycle 1 Day 4, MK-8353 150 mg + selumetinib 75 mg oral BID.

As to `Cc1cccc(CN2C(=O)c3cc(-c4nc(Nc5ccnn5C)ncc4C)cn3C[C@@H]2C)n1` [AZ6197], the “Antitumor activity of ERK inhibitor plus selumetinib versus each agent alone” value with preclinical models is recorded as “greater antitumor activity versus each agent alone”.

`CS[C@@]1(C(=O)Nc2ccc3[nH]nc(-c4ccc(OC(C)C)nc4)c3c2)CCN(CC(=O)N2CC=C(c3ccc(-c4ncn(C)n4)cc3)CC2)C1` [MK-8353]: in series [1] (setting [5]), the Eye disorders result was “no eye disorders occurred”, the Macular rash is listed as 1 n, the Maculopapular rash is given as 3 n and the Pruritus is 1 n. Besides, in series [1] (setting [5]), the Urticaria was 1 n. Moreover, in series [1] (setting [6]), the Diarrhea is 2 n, the Dyspepsia is given as 2 n, the Nausea is reported as 4 n and the Vomiting is 2 n. The Safety and tolerability entry in series [1] (MK-8353 400 mg twice daily) was “safe and well tolerated”. In [1] (setting [7]), the Blurred vision is recorded as 2 n, the Visual impairment is reported as 3 n and the Vitreous floaters is listed as 1 n. The “MTD of MK-8353 monotherapy” value in series [1] is recorded as 400 mg twice daily. Besides, the Antitumor activity entry in series [2] is on record as “Antitumor activity of MK-8353 was demonstrated”. Besides, the “Accumulation at steady state” value in series [3] is on record as not above 2 fold. Further, the “Patients with a partial response” value with advanced solid tumors is listed as 20%. The same molecule had a tmax in the series “clinical” (cycle 1, all dose levels) of 1.97 to 2.05 h.

Regarding `COC[C@H]1Cn2cc(-c3nc(Nc4ccnn4C)ncc3C)nc2C(=O)N1Cc1ccc(F)c(F)c1` [AZD0364], in the series on preclinical models, the “Antitumor activity of ERK inhibitor plus selumetinib versus each agent alone” value is given as “greater antitumor activity versus each agent alone”.

Turning to `Cn1cnc2c(F)c(Nc3ccc(Br)cc3Cl)c(C(=O)NOCCO)cc21` [selumetinib], the “Rates of treatment-related eye disorders” value in the series with patients (selumetinib combination therapy with other agents (chemotherapies, targeted therapies)) is “up to 40%”. The “Rates of treatment-related eye disorders” value with patients (selumetinib monotherapy, previous studies) was 10−20%. Besides, in series [3], the “Accumulation at steady state” value is given as not above 2 fold, the “Geometric mean minimum plasma concentration (Ctrough)” value is reported as 0.101−0.456 µmol/L and the “Time of Cmax after dosing” value is on record as not above 2 h. Also, the Objective response rates result with advanced cancers is on record as “up to 15%”. The molecule further registered a tmax in the series “clinical” of 1 to 1.96 h.

Usually Cmax stands for the highest concentration seen after dosing. Turning to `O=C(NOCCO)c1cc2[nH]cnc2c(F)c1Nc1ccc(Br)cc1Cl` [desmethyl selumetinib], the “Geometric mean minimum plasma concentration (Ctrough)” value in series [4] (from lowest to highest dose) lay within 8 to 26 nM. Besides, the “AUC0−12” value is 0.161 (52.4) h∙µmol/L in series [4] (setting [8]); 0.344 (73.5)^l h∙µmol/L in series [4] (setting [9]); 0.690 (56.3)^j h∙µmol/L in series [4] (setting [10]); 0.230 (63.5) h∙µmol/L in series [4] (setting [11]); 0.386 (49.6)^k h∙µmol/L in series [4] (setting [12]); 0.681 (35.7)^k h∙µmol/L in series [4] (setting [13]). The “AUC0−last” value in series [4] (setting [8]) is reported as 0.144 (47.7) h∙µmol/L; in series [4] (setting [9]) it was 0.261 (118.6) h∙µmol/L; in [4] (setting [10]), 0.547 (61.3) h∙µmol/L; in series [4] (setting [11]) it was 0.202 (60.5) h∙µmol/L; in series [4] (setting [12]), 0.267 (102.1) h∙µmol/L; in [4] (setting [13]), 0.486 (87.7)^f h∙µmol/L. The Cmax in series [4] (setting [8]) is 43.7 nM; in series [4] (setting [9]) it was 93.5 nM; in [4] (setting [10]) it was 158 nM; in series [4] (setting [11]), 56.3 nM; in [4] (setting [12]), 72.4 nM; in series [4] (setting [13]), 97.7 nM. Further, the tlast in series [4] (setting [8]) is 8.02 (7.83–8.07) h; in series [4] (setting [9]) it was 8.00 (3.92–11.33) h; in series [4] (setting [10]), 8.00 (7.83–8.37) h; in series [4] (setting [11]), 8.05 (7.97–8.08) h; in series [4] (setting [12]), 8.00 (5.83–8.33) h; in series [4] (setting [13]), 8.00 (0.00–8.05)^h. Moreover, the tmax is reported as 1.88 (0.92–2.05) h in series [4] (setting [8]); 1.02 (0.88–2.08) h in series [4] (setting [9]); 1.92 (0.83–4.00) h in [4] (setting [10]); 1.88 (1.87–2.00) h in [4] (setting [11]); 1.96 (0.95–3.97) h in series [4] (setting [12]); 1.07 (0.00–5.92)^h in [4] (setting [13]). Also, the “Accumulation at steady state” value in series [4] (twice daily dosing) is not above 2 fold.
